Experimental data taken from a melting point compilation (Tetko et al.; mined from patent text by program, amines drawn as free bases though some values may be those of a salt).

Row | melting point [°C] | Compound
1 | 211 to 212 | CN(c1cccc2cc(-c3ncc(CCc4nn[nH]n4)s3)[nH]c12)S(=O)(=O)c1cccs1
2 | 276 | O=C(O)c1cc2c(cc1C(=O)O)C(c1ccccc1)(C(F)(F)F)c1cc(C(=O)O)c(C(=O)O)cc1O2
3 | 253 to 254 | CCOC(=O)c1cnc2c([N+](=O)[O-])cccc2c1Cl
4 | 212 | CC(=O)Nc1ncc(SC#N)s1
5 | 158 | CC(=O)C(=Cc1cc([N+](=O)[O-])c(O)c([N+](=O)[O-])c1)C(C)=O
6 | 155 to 157 | N#Cc1ccc(Cc2cccnc2)cc1
7 | 305 | COc1ccc(-c2cc3ccc(C(=O)O)cc3s2)cc1C12CC3CC(CC(C3)C1)C2
8 | 178 to 180 | Oc1ccc(-c2nc(-c3ccccc3)nc3ccccc23)c(O)c1
9 | 194 to 195 | Cc1cccc2c1NC(=O)c1cscc1O2
10 | 172 to 174 | CCCc1nc2c(N)nc3cc(OCCCNC(=O)c4cccnc4)ccc3c2n1CC(C)C
11 | 135 to 137 | COc1ccc(S(=O)c2ccccc2)cc1[N+](=O)[O-] (centres undefined)
12 | 127 to 130 | CON1CCC2(CC1)NC(=O)C(F)(c1cc(C)ccc1C)C2=O (centres undefined)
13 | 232 to 233 | Cc1c(C(=O)N[C@H](C)[C@](O)(Cn2cncn2)c2ccc(F)cc2F)cnn1-c1ccccc1Cl
14 | 188 to 191 | COc1ccc(-c2cnc(S)nc2-c2ccc(OC)cc2)cc1
15 | 268 to 270 | O=c1cc(-c2ccc([N+](=O)[O-])cc2)c2c(O)cc(O)cc2o1
16 | 101 to 102 | CCc1cc2c(OC)ccc(C)c2nc1Cl

The next lines start with the compound.

Row | Compound | melting point [°C]
17 | COc1ccc2nc(NCC3CCN(CC4COc5ccccc5O4)CC3)sc2c1 (centres undefined) | 135
18 | O=c1c2c(c3cccnc3n1-c1ccccc1)SCC2 | 277 to 279
19 | O=C(c1ccc([N+](=O)[O-])cc1)N1CCCCc2sccc21 | 141 to 142
20 | COc1c(C)c2c(c(O)c1CC=C(C)CC(C)C(=O)O)C(=O)OC2 (centres undefined) | 122 to 123
21 | CC(C)Oc1cccc(OC(=O)NCc2c(-c3ccccc3)c3cc(Cl)ccc3c(=O)n2C)c1 | 158 to 160
22 | CCOC(=O)CCc1cn(Cc2cccnc2OCc2csc(-c3ccccc3)n2)nc1-c1ccccc1 | 88 to 89
23 | Cc1cn(Cc2ccc3c(c2)-c2[nH]nc(-c4ccsc4)c2C3)cn1 | 122 to 125
24 | CCCCNc1ncc2ccc(=O)n(C)c2n1 | 146 to 147
25 | CC(C)=CCN1c2ccccc2NC(=O)C1C (racemic) | 92 to 93
26 | COc1cccc(N2C(c3ccccc3Cl)=NS(=O)(=O)c3cnccc32)c1 | 227 to 229
27 | Cn1nc(-c2cccc(-n3ncc4cc(C(C)(C)C)cc(F)c4c3=O)c2CO)cc(Nc2cnc(CNC3CCC3)cn2)c1=O | 163 to 167
28 | Cc1c(C#N)c(N)nc(Cl)c1C#N | 210
29 | COc1cc(OC)nc(NC(=O)NS(=O)(=O)c2ccccc2S(=O)(=O)NC(=O)Nc2nc(OC)cc(OC)n2)n1 | 201 to 203
30 | C#CCc1c(C)nc2c(NCc3c(C)cccc3NC(=O)CO)cccn12 | 195 to 196
31 | COC(=O)CCCCC(=O)Nc1c(I)c(C(=O)O)c(I)c(N(C)C(C)=O)c1I | 229 to 232
32 | COc1cc(OC)c(C(O)C(Cl)(Cl)Cl)cc1OC (centres undefined) | 162 to 164
33 | CC(C)(C)OC(=O)NCC(COC(C(F)(F)F)(C(F)(F)F)C(F)(F)F)(COC(C(F)(F)F)(C(F)(F)F)C(F)(F)F)C(=O)O | 128 to 130
34 | COc1cc(Cl)c(OC)cc1C | 90 to 92
35 | O=c1[nH]c(=O)n(CCCBr)c2ccccc12 | 159 to 170
36 | CN(C)CCN(C(=O)c1cc([N+](=O)[O-])ccc1Br)c1ccnc2cc3c(cc12)OCO3 | 204 to 205
37 | O=C(O)c1conc1-c1ccc(F)cc1 | 170 to 174
38 | NC[C@@H]1CCCc2cc(S(=O)(=O)Nc3cccc(F)c3)ccc21 | 122 to 123
39 | CON(C)C(=O)CCc1nnc(-c2ccc3c(c2)CCO3)o1 | 112 to 113
